Usually IC50 stands for the concentration that inhibits the measured activity by half. Low readings indicate inhibition by little substance, high ones a need for much substance.

Molecules are shown by their SMILES. “Also recorded” adds a separate entry of the source.

Common to all, as to assay type: cell-based, human
Test [1] has as its system MCF-7 cells. The experiment in a line: Intracellular ROS generation (DCFH2-DA, flow cytometry). Particulars: MCF-7, compounds at respective IC50, 24 h, versus control. How it is done: An increase in intracellular ROS may be one of the factors that contribute to the cytotoxicity of certain compounds in cancer cell lines. In fact, ROS and mitochondrial damage are often associated with the induction of cell death. […] DCF fluorescence was then measured by flow cytometry. The difference in the percentage of DCF-positive cells between treated and control cells was used to indicate an increase in intracellular ROS, as shown in Figure 4.
Reactive oxygen species (ROS) production was measured using flow cytometry. Cells were treated with compounds (each with respective IC50 values) for 24 h, with untreated cells serving as the negative control and cells treated with 1 µM daunorubicin as the positive control. Following the treatment, intracellular ROS levels were visualized after incubation with 2′,7′-dichlorodihydro-fluorescein diacetate (DCFH2-DA) at a final concentration of 10 μM for the last 30 min of the treatment period. After incubation, the cells were washed with PBS, trypsinized, and centrifuged, and the resulting pellet was resuspended in PBS and immediately examined by flow cytometry.
Figure 4 The effect of the compound’s treatment on intracellular ROS generation. Cells were treated with compounds (respective IC50 values for each compound for 24 h), and intracellular ROS levels were determined in the human cancer cell line MCF-7 by flow cytometry using dichloro-fluorescein diacetate (DCFH2-DA). * p < 0.05 versus control cells (Ctrl). The data represent the means ± S.D. of at least three experiments with triplicate samples.
A general note: A flow cytometer gives signals particle by particle.

The next test concerns MCF-10 cells. The experiment in a line: MTT cytotoxicity assay on non-tumoral MCF-10 cells. Particulars: Homo sapiens, MCF10, 48 h incubation, IC50 ± SD, three experiments in triplicate. How it is done: (§1) In this study, we wondered whether semi-synthetic compounds have potential antitumoral properties against BC. Therefore, we were interested in investigating the effect of the compounds on the MCF-7 cell line. Firstly, we studied the effect on cell viability using a colorimetric MTT assay, which was performed to quantify the cytotoxic activity; each compound was evaluated at different concentrations (500−100−20−4−0.8−0.16−0.032−0 µM). Daunorubicin was also used as a positive control for comparison with a reference drug. […] Although the MCF-10 cell line provides a useful selectivity model, it may not fully represent the varying sensitivities of different normal cell types within a multicellular organism. The SI value indicates the ratio of toxicity in mammalian host cells to that in a tumoral cell. The data obtained in response to different concentrations of compounds were used to calculate the IC50 and corresponding SI values, as shown in Table 1.
(§2) The American Type Culture Collection (Rockville, MD, USA) supplied the following experimental cell lines: MCF-7, a human breast cancer cell line, and MCF-10A, a human epithelial breast cell line (ATCC N° CRL-10317). Both cell lines were grown in DMEM-F12 medium containing 10% FCS, 100 U/mL penicillin, 100 μg/mL streptomycin, and 1 mM glutamine. The cells were seeded at a concentration of 100 μL per well at a plating density of 3 × 10^3 cells/well and incubated for 24 h at 37 °C under 5% humidified CO2 to enable attachment. The cells were then treated with varying concentrations of synthesized compounds for […] under the same conditions. The compound stock solution was prepared in DMSO, and the final concentration of DMSO was kept at 0.1%. Control cultures were treated with only 1% ethanol.
(§3) Cells from the MCF-7 and MCF-10 lines were seeded into 96-well plates at a density of 1 × 10^4 per well. After 24 h, the compounds were added at increasing concentrations (500–100–20-4–0.8–0.16–0.032–0 µM), and the cells were incubated at 37 °C in a humidified 5% CO2/95% air mixture for 48 h. Following incubation, the cells were washed twice with PBS, and 100 μL of 0.5 mg/mL MTT solution was added to each well. After 2 h of incubation, the MTT solution was removed, and the formazan crystals were dissolved in 50 μL of DMSO per well. Absorbance was then measured at 570 nm using a microplate ELISA reader. IC50 values, determined from three independent experiments conducted in triplicate, were calculated using SigmaPlot® software (version 11.0). The selectivity index (SI) of each compound in each cell line was determined by calculating the ratio of the IC50 values for MCF-10 and cancer cell lines. Compounds were considered selective if SI values were equal to or greater than 3 [46].
A general note: Tetrazolium assays rely on reduction of a dye to a coloured formazan, in cell work by metabolically active cells.

The subject of test [2] is MCF-7 cells. The experiment in a line: MTT cytotoxicity assay on MCF-7 cells. The conditions noted are these: for IC50: Homo sapiens, MCF7, MTT, 48 h incubation, IC50 ± SD, three experiments in triplicate; for Selectivity Index (SI): SI = IC50 on MCF-10 cells/IC50 on MCF-7 cells. How it is done:
as §1, §2, §3

With `COc1ccc(/C=C2\C(C)=CCC3C(C)(C)CCC[C@]23C)cc1OC` (stereo partly drawn) [Compound 13c, (4aS)-5-((E)-3,4-Dimethoxybenzylidene)-1,1,4a,6-tetramethyl-1,2,3,4,4a,5,8,8a-octahydronaphthalene], the “intracellular ROS levels (DCF fluorescence)” value with MCF-7 cells [1] is “significantly increased”. Also, the IC50 in the test on MCF-10 cells amounted to 135 ± 26.6 µM; with MCF-7 cells [2], 22.5 ± 2.6 µM. Also, the “Selectivity Index (SI)” value with MCF-7 cells [2] is recorded as 6.0.

Turning to `COc1cc2c(cc1OC)[C@]1(C)CCC3C(C)(C)CCC[C@]3(C)C1=C2` (stereo partly drawn) [Compound 14c, (6aR,11bS)-8,9-Dimethoxy-4,4,6a,11b-tetramethyl-2,3,4,4a,5,6,6a,11b-octahydro-1H-benzo[a]fluorene], the “intracellular ROS levels (DCF fluorescence)” value in the test with MCF-7 cells [1] was “induced oxidative stress; also recorded: significantly increased”. Besides, the midpoint of inhibition with MCF-10 cells, the IC50, lay at 393 ± 47.1 µM. In addition, in the test on MCF-7 cells [2], the 50% inhibitory concentration (IC50) is 9 ± 2.8 µM and the “Selectivity Index (SI)” value turned out to be 44.

For the origin of these results see paper PMC12111648, “New Dimethoxyaryl-Sesquiterpene Derivatives with Cytotoxic Activity Against MCF-7 Breast Cancer Cells: From Synthesis to Topoisomerase I/II Inhibition and Cell Death Mechanism Studies” (International Journal of Molecular Sciences, 2025).
